From PMC11206507, “Unraveling the Impact of Six Pentacyclic Triterpenes Regulating Metabolic Pathways on Lung Carcinoma Cells” (Pharmaceuticals, 2024)
Like-named read-outs stand apart in the source and are kept apart here.

Key:
NSCLC A549 cells [1] = system: NSCLC A549 cells; parameters: method as in PMID 31338398; settings: cited from earlier work; for Cytotoxicity in A549 cells at the highest concentration: 100 μM; for IC50: 24 h, MTS/PMS, already obtained by the authors
A549 cells [2] = assay: Total ROS production assay (DCF); assay type: cell-based, human; settings: A549, IC25 (CisPt 25 μM), 24 h
Experimental: The production of total ROS was determined using the 2′,7′-dichlorodihydrofluorescein diacetate (DCF) fluorescent dye. A549 cells were seeded in a concentration of 1 × 10^5 cells/mL into black 96-well plates with a clear bottom. After 24 h, the cells were incubated with the triterpenes (IC25) and controls for 24 h. Then, 50 μL of DCF (10 μM) was added to each well and they were incubated for 1 h at room temperature. Then, the fluorescence of each well was measured (Ex/Em = 485/530 nm) in the Tecan® M200 plate reader.
This experiment was performed in triplicate. All data were expressed by plotting the values as an average of three measurements for each treatment condition as the mean ± SD and analyzed with the software GraphPad Prism 9. Statistical analysis was performed using one-way analysis of variance (ANOVA) to compare the mean value of each treated type of cells versus the control (untreated cells). The statistical significance defined by the software for p values was **** < 0.0001, *** from 0.001 to 0.0001, ** from 0.001 to 0.01, * from 0.01 to 0.05, and non-significant (ns) ≥ 0.05.

PDL1 gene = assay: RT-qPCR gene expression of PDL1; assay type: cell-based, human; settings: A549, IC25 (CisPt 25 μM), 24 h
Experimental: (§1) A549 cells were seeded into 6-well plates at a density of 1 × 10^6 cells/mL in supplemented DMEM. The cells were incubated with the triterpenes (IC25) for 24 h. Total RNA was extracted from the cells using the TRIzol reagent (Invitrogen Corporation, Carlsbad, CA, USA) according to the manufacturer’s instructions. The purity and concentration of RNA were assessed using a NanoDrop spectrophotometer (Thermo Fisher Scientific). cDNA was synthesized using the High-Capacity cDNA Reverse Transcription Kit (Applied Biosystems) according to the manufacturer’s instructions.
(§2) RT-qPCR was performed on a StepOnePlus® Real-Time PCR System (Thermo Fisher Scientific) using TaqMan Gene Expression Assays (Applied Biosystems) for PDL1 (CD274; Assay ID: Hs01125297_m1), ribonucleotide reductase (RR) M1 (Assay ID: Hs01040697_m1), and STAT3 (Assay ID: Hs01047586_g1). Each reaction consisted of 10 ng of cDNA, TaqMan Gene Expression Master Mix (Applied Biosystems), and TaqMan probes. The PCR cycling conditions were as follows: 95 °C for 10 min, followed by 40 cycles of 95 °C for 15 s and 60 °C for 60 s. The relative gene expression levels were calculated using the ΔΔCt method. GAPDH (Assay ID: Hs02758991_g1) was used as the endogenous control for normalization.
(§3) All RT-qPCR experiments were performed at least in triplicate. All data were expressed by plotting values with an average of four measurements for each treatment condition as the mean ± SD and analyzed with the software GraphPad Prism 9. Statistical analysis was performed using one-way analysis of variance (ANOVA) to compare the mean value of each treated type of cells versus the control (untreated cells). The statistical significance defined by the software for p values was **** < 0.0001, *** from 0.001 to 0.0001, ** from 0.001 to 0.01, * from 0.01 to 0.05, and non-significant (ns) ≥ 0.05.

[3] = MTS/PMS cell viability, MRC5; assay type: cell-based; settings: human, MRC5 normal lung fibroblast cells
Experimental: (§4) The 50% inhibitory concentration (IC50) of some of these triterpenes in A549 NSCLC cells were previously determined by us. A similar procedure was performed to determine the IC50 of the triterpenes in a normal lung fibroblast cell line (MRC5). In brief, the A549 and MRC5 cells were seeded into 96-well plates at a density of 1 × 10^5 cells/mL in supplemented DMEM medium. The cells were treated with specific concentrations (A549: 5, 10, 25, 50, 75, 100, 125,150, 175, 200 μM; MRC5: 5, 10, 25, 50, 75, 100 μM) of the triterpenes and incubated for 24 h. Then, 10 uL of the MTS reagent from the CellTiter 96® Aqueous Non-Radioactive Cell Proliferation Assay (Promega G5421) was added to each well. Then, we incubated the plates at 37 °C and in a 5% CO2 atmosphere for 1 h. After incubation, the absorbance was measured at 492 nm (n = 8) in a microplate reader spectrophotometer (Thermoscientific Multiskan FC). The cell viability was calculated as follows:% Viability = (sample absorbance − sample media absorbance)/(untreated cells’ absorbance − untreated cells’ media absorbance) × 100
The cell viability data were presented by plotting the values with an average of eight measurements for each treatment (mean ± SD) in at least three independent experiments. The IC50 values were calculated with the GraphPad Prism 9 software (Prism 9; GraphPad by Dotmatics, San Diego, CA, USA) using the dose–response curve. The data were normalized by the non-linear fit of the log (drug inhibition) vs. normalized response variable slope to obtain the best fit IC50 and R-squared values.

MAPK/PI3K = MAPK/PI3K protein expression (dual pathway activation kit, flow cytometry); assay type: cell-based, human; settings: for MAPK/PI3K expression (in words): A549, IC25, 24 h, vs untreated cells; for MAPK/PI3K inhibition: summary, NSCLC A549 cells; for MAPK/PI3K inhibition: key: '✔' means induction; '-' means non-induction of any of the tested processes
Experimental: (§5) We used flow cytometry to analyze several cellular mechanistic pathways in A549 cells after incubation with the triterpenes. In general, the cells were seeded in a 6-well plate at a density of 1 × 10^6 cells/mL and incubated for 24 h in supplemented DMEM. After 24 h, the A549 cells were treated with the triterpenes, following each manufacturer’s protocol. All of the following experiments were performed in a Muse® Cell Analyzer (EMD Millipore Corporation, Temecula, CA). The instrument was calibrated before each assay using the Muse® System Check Kit (Luminex MCH100101, Luminex Corporation). Each assay was run at least in two independent experiments. For each experiment, all samples were analyzed in triplicate in the instrument and the capillary line was washed after each sample run to avoid artifacts. In addition, to address the issue of cell doublets, we used the Muse® Cell Dispersal Reagent (Luminex Corporation) in all experiments. The concentration of the triterpenes in each assay was selected depending on the cellular concentration necessary to generate the gain signal in the instrument. This means that we attempted to select concentrations avoiding excessive cytotoxicity to accurately determine the respective signal from each assay.
The Muse® P13K/MAPK Dual Pathway Activation Kit (Luminex MCH200108, Luminex Corporation) was used to determine MAPK/PI3K expression. After the incubation treatment with the triterpenes (IC25) for 24 h, the A549 cells were scraped, centrifuged, and washed once with 1× PBS. Next, the fixation buffer was incubated for 10 min and then the permeabilization buffer for another 10 min. Both incubations were performed on ice. Later, the antibody cocktail containing anti-phospho-Akt and anti-phospho-ERK1/2 was incubated for 30 min. Afterward, the cell pellet was washed and suspended in fresh assay buffer for measurement.

NSCLC A549 cells [4] = assay: MTS/PMS cell viability, A549; assay type: cell-based, human; for TI > 1: key: '✔' means induction; '-' means non-induction of any of the tested processes
Experimental: as §4, with “A” for “The 50% inhibitory concentration (IC50) of some of these triterpenes in A549 NSCLC cells were previously determined by us. A”, “The cells were treated with specific concentrations (A549: 5, 10, 25, 50, 75, 100, 125,150, 175, 200 μM; MRC5: 5, 10, 25, 50, 75, 100 μM) of the triterpenes and incubated for 24 h.” left out
The cell viability data were presented by plotting the values with an average of eight measurements for each treatment (mean ± SD) in at least three independent experiments. The IC50 values were calculated with the GraphPad Prism 9 software (Prism 9; GraphPad by Dotmatics, San Diego, CA, USA) using the dose–response curve.

RRM1 gene = assay: RT-qPCR gene expression of ribonucleotide reductase M1; assay type: cell-based, human
Experimental: as §1
as §2, with “GAPDH (Assay ID: Hs02758991_g1) was used as the endogenous control for normalization.” left out
All RT-qPCR experiments were performed at least in triplicate. All data were expressed by plotting values with an average of four measurements for each treatment condition as the mean ± SD and analyzed with the software GraphPad Prism 9. […]

A549 cells [5] = assay: Mitochondrial ROS production assay (DHE, flow cytometry); assay type: cell-based, human; settings: A549, IC25, 24 h; group average
Experimental: as §5
The production of reactive oxygen species (ROS) by mitochondria was determined using the Oxidative Stress Kit (Luminex MCH100111, Luminex Corporation). After the A549 cells were treated with the triterpenes (IC25) for 24 h, the cells were scraped and centrifuged. For ROS, the cell pellet was incubated with dihydroethidium (DHE) dye for 1 h at 37 °C.

LC3-II = assay: Autophagy induction assay (LC3 antibody, flow cytometry); assay type: cell-based, human; settings: for Autophagic response (in words): A549, IC25, 24 h, vs controls (untreated ratio 0.8, starving ratio 1)
Experimental: as §5
The Muse® Autophagy LC3 Antibody-Based Kit (Luminex MCH200109, Luminex Corporation) was used to determine autophagy activation by monitoring lipidated LC3-II. After the A549 cells were treated with the triterpenes (IC25) for 24 h, autophagy reagent A was added for 4 h to prevent the lysosomal degradation of LC3-II. Then, the cells were detached and centrifuged. The pellet was suspended and incubated for 30 min in the autophagy reagent B containing anti-LC3-II mouse monoclonal antibody. Finally, the cell pellet was washed and suspended in fresh assay buffer for measurement. The autophagy response was calculated using the following formula:
Autophagy ratio = mean autophagy value of treated or untreated cells/mean autophagy value of starving cells.
The starving cells were labeled ‘No supp’ as non-supplemented cells. These served as the positive signal for autophagy and were designated a ratio of 1 since they were compared to themselves. A ratio ≥1 indicates the activation of the autophagic response.

STAT3 gene = assay: RT-qPCR gene expression of STAT3; assay type: cell-based, human
Experimental: as §1, §2, §3

[6] = system: DNA damage machinery in A549 cells; assay: DNA damage assay (anti-pH2AX / anti-pATM, flow cytometry); assay type: cell-based, human; settings: A549, IC50, 24 h, vs untreated cells
Experimental: as §5
Then, the A549 cells were scraped and centrifuged. The pellet was suspended in the assay buffer from the Luminex MCH200107 kit (Luminex Corporation). […]

SMILES | Cytotoxicity in A549 cells at the highest concentration (NSCLC A549 cells [1]) | IC50 at 24 h [3] [µM] | MAPK/PI3K expression (in words) (MAPK/PI3K) | MAPK/PI3K inhibition (MAPK/PI3K) | IC50 (NSCLC A549 cells [1]) [µM] | Autophagic response (in words) (LC3-II) | further results
CC(C)CCC[C@@H](C)[C@H]1CC[C@H]2[C@@H]3CC=C4C[C@@H](O)CC[C@]4(C)[C@H]3CC[C@]12C [cholesterol, reference compound] | did not kill A549 cells |  |  |  |  |  | 
N.N.[Cl][Pt][Cl] [CisPt, cis-diamminedichloroplatinum (II), reference compound] |  |  |  |  |  |  | Total ROS production (in words) (A549 cells [2]): not statistically significant; PDL1 gene expression (in words) (PDL1 gene): clearly upregulated PDL1
CC1(C)CC[C@]2(C(=O)O)CC[C@]3(C)C(=CC[C@@H]4[C@@]5(C)CC[C@H](O)C(C)(C)[C@@H]5CC[C@]43C)[C@@H]2C1 [OleA, oleanolic acid] |  | 86 ± 2 | did not affect the expression of MAPK/PI3K | - | 43 ± 5 | inhibit the LC3-II activity | TI (NSCLC A549 cells [4]): 2; RRM1 gene expression (in words) (RRM1 gene; A549, IC25, 24 h, vs untreated cells): did not downregulate RR; RRM1 downregulation (RRM1 gene; summary, NSCLC A549 cells): -; Amount of mROS, on average of the three named triterpenes, compared to the untreated cells (A549 cells [5]): 26.2%; STAT3 gene expression (in words) (STAT3 gene; A549, IC25, 24 h): did not inhibit; STAT3 downregulation (STAT3 gene; summary, NSCLC A549 cells): -
CC[C@H](CC[C@@H](C)[C@H]1CC[C@H]2[C@@H]3CC=C4C[C@@H](O)CC[C@]4(C)[C@H]3CC[C@]12C)C(C)C [β-sitosterol, reference compound] | did not kill A549 cells |  |  |  |  |  | 
C[C@H]1[C@H](C)CC[C@]2(C(=O)O)CC[C@]3(C)C(=CC[C@@H]4[C@@]5(C)C[C@@H](O)[C@H](O)[C@@](C)(CO)[C@@H]5CC[C@]43C)[C@H]12 [AsA, asiatic acid] |  | 38 ± 2 | did not affect the expression of MAPK/PI3K | - | 59 ± 6 | induced an autophagic response similar to that of CisPt | Activation of the DNA damage machinery (in words) [6]: caused the activation of the DNA damage machinery; TI (NSCLC A549 cells [4]; TI = MRC5 IC50/A549 IC50, >1 means higher selectivity): 0.64; TI > 1 (NSCLC A549 cells [4]; summary, MRC5 vs A549): -; Autophagy inhibition (LC3-II; summary, NSCLC A549 cells): -
